Assay results taken from PubChem BioAssay AID2060485 (Molecular Pharmacology Branch, DTP, NCI, 2025).

Tested on: A375 multi-cell spheroids with HUVEC/MSC, viability
Experiment: Anticancer human tumor A375 cell line growth inhibition [GQUAD];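 further: spheroids exposed to compounds for seven days before readout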
Details: for IC50: curve of first compound; for viability, T/C: stronger effect = lower value
Method in brief: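 Multi-cell-type spheroids of tumor cells with HUVEC and mesenchymal stem cells, treated with drug combinations. Concentrations descend in half-log steps from near clinical Cmax, or from 10 microM where Cmax is unknown; viability read-out.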

[1] = second compound 0.0316 µM, first compound 0.0316 µM
[2] = second compound 0.0316 µM, first compound 0.1 µM
[3] = second compound 0.0316 µM, first compound 0.316 µM
[4] = second compound 0.0316 µM, first compound 1 µM
[5] = second compound 0.0316 µM, first compound 3.16 µM
[6] = second compound 0.0316 µM, first compound 10 µM
[7] = second compound 0.1 µM, first compound 0.0316 µM
[8] = second compound 0.1 µM, first compound 0.1 µM
[9] = second compound 0.1 µM, first compound 0.316 µM
[10] = second compound 0.1 µM, first compound 1 µM
[11] = second compound 0.1 µM, first compound 3.16 µM
[12] = second compound 0.1 µM, first compound 10 µM
[13] = second compound 0.316 µM, first compound 0.0316 µM
[14] = second compound 0.316 µM, first compound 0.1 µM
[15] = second compound 0.316 µM, first compound 0.316 µM
[16] = second compound 0.316 µM, first compound 1 µM
[17] = second compound 0.316 µM, first compound 3.16 µM
[18] = second compound 0.316 µM, first compound 10 µM
[19] = second compound 1 µM, first compound 0.0316 µM
[20] = second compound 1 µM, first compound 0.1 µM
[21] = second compound 1 µM, first compound 0.316 µM
[22] = second compound 1 µM, first compound 1 µM
[23] = second compound 1 µM, first compound 3.16 µM
[24] = second compound 1 µM, first compound 10 µM
[25] = second compound 3.16 µM, first compound 0.0316 µM
[26] = second compound 3.16 µM, first compound 0.1 µM
[27] = second compound 3.16 µM, first compound 0.316 µM
[28] = second compound 3.16 µM, first compound 1 µM
[29] = second compound 3.16 µM, first compound 3.16 µM
[30] = second compound 3.16 µM, first compound 10 µM
[31] = second compound 10 µM, first compound 0.0316 µM
[32] = second compound 10 µM, first compound 0.1 µM
[33] = second compound 10 µM, first compound 0.316 µM
[34] = second compound 10 µM, first compound 1 µM
[35] = second compound 10 µM, first compound 3.16 µM
[36] = second compound 10 µM, first compound 10 µM

## Cc1cccc(N(C)C(=O)C2C(O)CCN2c2nc(C)cc(C(F)(F)F)c2C#N)c1 (stereo unspecified) + CN(C)c1ccc(Nc2c3ccc(NC(=O)CCN4CCCC4)cc3nc3cc(NC(=O)CCN4CCCC4)ccc23)cc1
Second compound 0.0316 µM
  IC50: > 10 µM
Second compound 0.1 µM
  IC50: > 10 µM
Second compound 0.316 µM
  IC50: > 10 µM
Second compound 1 µM
  IC50: > 10 µM
Second compound 3.16 µM
  IC50: > 10 µM
Second compound 10 µM
  IC50: > 10 µM
[1]
  viability, T/C: 103%
[2]
  viability, T/C: 98.6%
[3]
  viability, T/C: 104%
[4]
  viability, T/C: 105%
[5]
  viability, T/C: 105%
[6]
  viability, T/C: 102%
[7]
  viability, T/C: 113%
[8]
  viability, T/C: 104%
[9]
  viability, T/C: 99.8%
[10]
  viability, T/C: 97%
[11]
  viability, T/C: 107%
[12]
  viability, T/C: 102%
[13]
  viability, T/C: 113%
[14]
  viability, T/C: 101%
[15]
  viability, T/C: 101%
[16]
  viability, T/C: 109%
[17]
  viability, T/C: 99.1%
[18]
  viability, T/C: 95.7%
[19]
  viability, T/C: 107%
[20]
  viability, T/C: 98.3%
[21]
  viability, T/C: 97.3%
[22]
  viability, T/C: 96.9%
[23]
  viability, T/C: 104%
[24]
  viability, T/C: 97.3%
[25]
  viability, T/C: 117%
[26]
  viability, T/C: 106%
[27]
  viability, T/C: 93.9%
[28]
  viability, T/C: 101%
[29]
  viability, T/C: 98%
[30]
  viability, T/C: 100%
[31]
  viability, T/C: 95.7%
[32]
  viability, T/C: 96.3%
[33]
  viability, T/C: 89.9%
[34]
  viability, T/C: 93.7%
[35]
  viability, T/C: 96.5%
[36]
  viability, T/C: 74.3%

## Nc1ccn(C2OC(CO)C(O)C2(F)F)c(=O)n1 (stereo unspecified) + CN(C)c1ccc(Nc2c3ccc(NC(=O)CCN4CCCC4)cc3nc3cc(NC(=O)CCN4CCCC4)ccc23)cc1
Second compound 0.0316 µM
  IC50: < 0.0316 µM
Second compound 0.1 µM
  IC50: < 0.0316 µM
Second compound 0.316 µM
  IC50: < 0.0316 µM
Second compound 1 µM
  IC50: < 0.0316 µM
Second compound 3.16 µM
  IC50: < 0.0316 µM
Second compound 10 µM
  IC50: < 0.0316 µM
[1]
  viability, T/C: 13.1%
[2]
  viability, T/C: 5.96%
[3]
  viability, T/C: 5.05%
[4]
  viability, T/C: 6.71%
[5]
  viability, T/C: 7.93%
[6]
  viability, T/C: 7.84%
[7]
  viability, T/C: 12.4%
[8]
  viability, T/C: 6.04%
[9]
  viability, T/C: 6.62%
[10]
  viability, T/C: 6.98%
[11]
  viability, T/C: 7.52%
[12]
  viability, T/C: 8.82%
[13]
  viability, T/C: 13.4%
[14]
  viability, T/C: 5.96%
[15]
  viability, T/C: 6.92%
[16]
  viability, T/C: 7.41%
[17]
  viability, T/C: 8.24%
[18]
  viability, T/C: 9.65%
[19]
  viability, T/C: 11%
[20]
  viability, T/C: 6.99%
[21]
  viability, T/C: 6.31%
[22]
  viability, T/C: 6.93%
[23]
  viability, T/C: 7.59%
[24]
  viability, T/C: 10.1%
[25]
  viability, T/C: 13.2%
[26]
  viability, T/C: 6.34%
[27]
  viability, T/C: 6.54%
[28]
  viability, T/C: 7.74%
[29]
  viability, T/C: 8.41%
[30]
  viability, T/C: 9.18%
[31]
  viability, T/C: 11.4%
[32]
  viability, T/C: 5.96%
[33]
  viability, T/C: 6.62%
[34]
  viability, T/C: 6.28%
[35]
  viability, T/C: 9.34%
[36]
  viability, T/C: 7.97%

## O=c1[nH]cc(F)c(=O)[nH]1 + CN(C)c1ccc(Nc2c3ccc(NC(=O)CCN4CCCC4)cc3nc3cc(NC(=O)CCN4CCCC4)ccc23)cc1
Second compound 0.0316 µM
  IC50: > 10 µM
Second compound 0.1 µM
  IC50: > 10 µM
Second compound 0.316 µM
  IC50: > 10 µM
Second compound 1 µM
  IC50: > 10 µM
Second compound 3.16 µM
  IC50: > 10 µM
Second compound 10 µM
  IC50: > 10 µM
[1]
  viability, T/C: 98.7%
[2]
  viability, T/C: 107%
[3]
  viability, T/C: 97.2%
[4]
  viability, T/C: 106%
[5]
  viability, T/C: 109%
[6]
  viability, T/C: 99.3%
[7]
  viability, T/C: 99.8%
[8]
  viability, T/C: 104%
[9]
  viability, T/C: 99.3%
[10]
  viability, T/C: 103%
[11]
  viability, T/C: 106%
[12]
  viability, T/C: 96.8%
[13]
  viability, T/C: 112%
[14]
  viability, T/C: 102%
[15]
  viability, T/C: 97.8%
[16]
  viability, T/C: 103%
[17]
  viability, T/C: 107%
[18]
  viability, T/C: 92.9%
[19]
  viability, T/C: 108%
[20]
  viability, T/C: 100%
[21]
  viability, T/C: 94.2%
[22]
  viability, T/C: 104%
[23]
  viability, T/C: 105%
[24]
  viability, T/C: 96%
[25]
  viability, T/C: 108%
[26]
  viability, T/C: 98.1%
[27]
  viability, T/C: 101%
[28]
  viability, T/C: 99.1%
[29]
  viability, T/C: 100%
[30]
  viability, T/C: 95.4%
[31]
  viability, T/C: 106%
[32]
  viability, T/C: 94.4%
[33]
  viability, T/C: 101%
[34]
  viability, T/C: 102%
[35]
  viability, T/C: 105%
[36]
  viability, T/C: 98.4%
